Values after ≈ are worked out from the molar mass of the structure shown. Active and inactive are the calls of the source. The rule behind the calls is not given here.
Columns and labels:
[1] = Selectivity index, ratio of compound concentration showing <20 to <30% hemolysis in mouse RBC to MIC for fluconazole/ITC-susceptible Candida albicans ATCC MYA-2876; assay type: toxicity; conditions: red blood cells (erythrocytes), read-out: Selectivity Index
[2] = Selectivity index, ratio of CC50 for human A549 cells to MIC for Aspergillus terreus ATCC MYA-3633; assay type: toxicity; conditions: read-out: Selectivity Index
[3] = Selectivity index, ratio of compound concentration showing <20 to <30% hemolysis in mouse RBC to MIC for fluconazole/ITC-susceptible Candida albicans ATCC MYA-2310; assay type: toxicity; conditions: mouse red blood cells (RBC), read-out: Selectivity Index
Pichia kudriavzevii = experiment: Antifungal activity against Candida krusei ATCC 6258 measured after 48 hrs by CLSI M27-A3 protocol based method; assay type: functional; conditions: ATCC 6258, 48 h
Candida albicans [4] = experiment: Antifungal activity against fluconazole/ITC-resistant Candida albicans ATCC MYA-1237 measured after 48 hrs by CLSI M27-A3 protocol based method; assay type: functional; conditions: ATCC MYA-1237, 48 h
[5] = Hemolytic activity in mouse RBC at 3.9 ug/ml after 1 hr relative to control; assay type: ADME, cell-based, Erythrocyte; conditions: red blood cells (erythrocytes), read-out: Activity
[6] = Selectivity index, ratio of compound concentration showing <20 to <30% hemolysis in mouse RBC to MIC for fluconazole/ITC-resistant Candida albicans ATCC 90819; assay type: toxicity; conditions: red blood cells (erythrocytes), read-out: Selectivity Index
[7] = Hemolytic activity in mouse RBC at 62.5 ug/ml after 1 hr relative to control; assay type: ADME, cell-based, Erythrocyte; conditions: red blood cells (erythrocytes), read-out: Activity
Aspergillus nidulans = experiment: Antifungal activity against Aspergillus nidulans ATCC 38163 measured after 48 hrs by CLSI M38-A2 protocol based method; assay type: functional; conditions: ATCC 38163, 48 h
Nakaseomyces glabratus = experiment: Antifungal activity against Candida glabrata ATCC 2001 measured after 48 hrs by CLSI M27-A3 protocol based method; assay type: functional; conditions: CBS 138, 48 h
Candida albicans [8] = experiment: Antifungal activity against fluconazole/ITC-resistant Candida albicans ATCC MYA-1003 measured after 48 hrs by CLSI M27-A3 protocol based method; assay type: functional; conditions: ATCC MYA-1003, 48 h
[9] = Hemolytic activity in mouse RBC at 31.3 ug/ml after 1 hr relative to control; assay type: ADME, cell-based, Erythrocyte; conditions: red blood cells (erythrocytes), read-out: Activity
[10] = Selectivity index, ratio of CC50 for human A549 cells to MIC for Candida glabrata ATCC 2001; assay type: toxicity; conditions: read-out: Selectivity Index
[11] = Selectivity index, ratio of CC50 for human A549 cells to MIC for fluconazole/ITC-resistant Candida albicans ATCC 64124; assay type: toxicity; conditions: read-out: Selectivity Index
Candida albicans [12] = experiment: Antifungal activity against fluconazole/ITC-resistant Candida albicans ATCC 90819 measured after 48 hrs by CLSI M27-A3 protocol based method; assay type: functional; conditions: ATCC 90819, 48 h
[13] = Selectivity index, ratio of compound concentration showing <20 to <30% hemolysis in mouse RBC to MIC for Candida parapsilosis ATCC 22019; assay type: toxicity; conditions: mouse red blood cells (RBC), read-out: Selectivity Index
[14] = Selectivity index, ratio of CC50 for human A549 cells to MIC for fluconazole/ITC-resistant Candida albicans ATCC 10231; assay type: toxicity; conditions: read-out: Selectivity Index
[15] = Selectivity index, ratio of compound concentration showing <20 to <30% hemolysis in mouse RBC to MIC for fluconazole/ITC-resistant Candida albicans ATCC MYA-1003; assay type: toxicity; conditions: mouse red blood cells (RBC), read-out: Selectivity Index
[16] = Selectivity index, ratio of CC50 for human A549 cells to MIC for Candida krusei ATCC 6258; assay type: toxicity; conditions: read-out: Selectivity Index
A549 = experiment: Cytotoxicity against human A549 cells after 24 hrs by resazurin based assay; assay type: cell-based; conditions: a549, 24 h
[17] = Selectivity index, ratio of compound concentration showing <20 to <30% hemolysis in mouse RBC to MIC for Aspergillus nidulans ATCC 38163; assay type: toxicity; conditions: mouse red blood cells (RBC), read-out: Selectivity Index
[18] = Selectivity index, ratio of CC50 for human A549 cells to MIC for Candida parapsilosis ATCC 22019; assay type: toxicity; conditions: read-out: Selectivity Index
Enterococcus = experiment: Antibacterial activity against vancomycin-resistant Enterococcus; assay type: functional, organism-based
Candida albicans [19] = experiment: Antifungal activity against fluconazole/ITC-susceptible Candida albicans ATCC MYA-2876 measured after 48 hrs by CLSI M27-A3 protocol based method; assay type: functional; conditions: ATCC MYA-2876, 48 h
[20] = Selectivity index, ratio of CC50 for human A549 cells to MIC for fluconazole/ITC-susceptible Candida albicans ATCC MYA-2310; assay type: toxicity; conditions: read-out: Selectivity Index
[21] = Hemolytic activity in mouse RBC at […] ug/ml after 1 hr relative to control; assay type: ADME, cell-based, Erythrocyte; conditions: red blood cells (erythrocytes), read-out: Activity
[22] = Selectivity index, ratio of compound concentration showing <20 to <30% hemolysis in mouse RBC to MIC for Candida glabrata ATCC 2001; assay type: toxicity; conditions: mouse red blood cells (RBC), read-out: Selectivity Index
Aspergillus flavus = experiment: Antifungal activity against Aspergillus flavus ATCC MYA-3631 measured after 48 hrs by CLSI M38-A2 protocol based method; assay type: functional; conditions: ATCC MYA-3631, 48 h
Candida albicans [23] = experiment: Antifungal activity against fluconazole/ITC-resistant Candida albicans ATCC 10231 measured after 48 hrs by CLSI M27-A3 protocol based method; assay type: functional; conditions: ATCC 10231, 48 h
[24] = Selectivity index, ratio of compound concentration showing <20 to <30% hemolysis in mouse RBC to MIC for fluconazole/ITC-resistant Candida albicans ATCC 10231; assay type: toxicity; conditions: red blood cells (erythrocytes), read-out: Selectivity Index
[25] = Selectivity index, ratio of compound concentration showing <20 to <30% hemolysis in mouse RBC to MIC for Candida krusei ATCC 6258; assay type: toxicity; conditions: mouse red blood cells (RBC), read-out: Selectivity Index
BEAS-2B = experiment: Cytotoxicity against human BEAS2B cells after 24 hrs by resazurin based assay; assay type: cell-based
Candida albicans [26] = experiment: Antifungal activity against fluconazole/ITC-resistant Candida albicans ATCC 64124 measured after 48 hrs by CLSI M27-A3 protocol based method; assay type: functional; conditions: ATCC 64124, 48 h
Candida albicans [27] = experiment: Antifungal activity against fluconazole/ITC-susceptible Candida albicans ATCC MYA-2310 measured after 48 hrs by CLSI M27-A3 protocol based method; assay type: functional; conditions: ATCC MYA-2310, 48 h
[28] = Selectivity index, ratio of CC50 for human A549 cells to MIC for fluconazole/ITC-resistant Candida albicans ATCC 90819; assay type: toxicity; conditions: read-out: Selectivity Index
[29] = Hemolytic activity in mouse RBC at 7.8 ug/ml after 1 hr relative to control; assay type: ADME, cell-based, Erythrocyte; conditions: red blood cells (erythrocytes), read-out: Activity
[30] = Hemolytic activity in mouse RBC at 1.95 ug/ml after 1 hr relative to control; assay type: ADME, cell-based, Erythrocyte; conditions: red blood cells (erythrocytes), read-out: Activity
Aspergillus terreus = experiment: Antifungal activity against Aspergillus terreus ATCC MYA-3633 measured after 48 hrs by CLSI M38-A2 protocol based method; assay type: functional; conditions: ATCC MYA-3633, 48 h
[31] = Selectivity index, ratio of compound concentration showing <20 to <30% hemolysis in mouse RBC to MIC for fluconazole/ITC-resistant Candida albicans ATCC MYA-1237; assay type: toxicity; conditions: mouse red blood cells (RBC), read-out: Selectivity Index
[32] = Selectivity index, ratio of CC50 for human A549 cells to MIC for Aspergillus nidulans ATCC 38163; assay type: toxicity; conditions: read-out: Selectivity Index
Staphylococcus aureus = experiment: Antibacterial activity against methicillin-resistant Staphylococcus aureus; assay type: functional, organism-based
[33] = Hemolytic activity in mouse RBC at […] after 1 hr relative to control; assay type: ADME, cell-based, Erythrocyte; conditions: red blood cells (erythrocytes), read-out: Activity; also: tested at 0.48 µg/mL
Candida parapsilosis = experiment: Antifungal activity against Candida parapsilosis ATCC 22019 measured after 48 hrs by CLSI M27-A3 protocol based method; assay type: functional; conditions: Lodderomyces parapsilosis, ATCC 22019, 48 h
[34] = Selectivity index, ratio of CC50 for human A549 cells to MIC for fluconazole/ITC-resistant Candida albicans ATCC MYA-1003; assay type: toxicity; conditions: read-out: Selectivity Index
[35] = Selectivity index, ratio of CC50 for human A549 cells to MIC for fluconazole/ITC-resistant Candida albicans ATCC MYA-1237; assay type: toxicity; conditions: read-out: Selectivity Index
[36] = Selectivity index, ratio of CC50 for human A549 cells to MIC for fluconazole/ITC-susceptible Candida albicans ATCC MYA-2876; assay type: toxicity; conditions: read-out: Selectivity Index
[37] = Selectivity index, ratio of compound concentration showing <20 to <30% hemolysis in mouse RBC to MIC for fluconazole/ITC-resistant Candida albicans ATCC 64124; assay type: toxicity; conditions: red blood cells (erythrocytes), read-out: Selectivity Index
[38] = Selectivity index, ratio of compound concentration showing <20 to <30% hemolysis in mouse RBC to MIC for Aspergillus flavus ATCC MYA-3631; assay type: toxicity; conditions: mouse red blood cells (RBC), read-out: Selectivity Index
Listeria monocytogenes = experiment: Antibacterial activity against Listeria monocytogenes; assay type: functional, organism-based
[39] = Selectivity index, ratio of compound concentration showing <20 to <30% hemolysis in mouse RBC to MIC for Aspergillus terreus ATCC MYA-3633; assay type: toxicity; conditions: mouse red blood cells (RBC), read-out: Selectivity Index
[40] = Selectivity index, ratio of CC50 for human A549 cells to MIC for Aspergillus flavus ATCC MYA-3631; assay type: toxicity; conditions: read-out: Selectivity Index

SMILES: Fc1cccc(N/N=C/c2ccc(-c3ccc(/C=N/Nc4cccc(F)c4)cc3)cc2)c1
- selectivity ratio [1]: 1 to 32
- selectivity ratio [2]: 1
- selectivity ratio [3]: 1 to 32
- MIC (Pichia kudriavzevii): 15.6 µg/mL (≈ 36.6 µM)
- MIC (Candida albicans [4]): > 31.3 µg/mL
- hemolysis at 1 h, 3.9 ug/ml [5]: 3.2%
- selectivity ratio [6]: 1 to 32
- hemolysis at 1 h, 62.5 ug/ml [7]: 13.6%
- MIC (Aspergillus nidulans): > 31.3 µg/mL
- MIC (Nakaseomyces glabratus): > 31.3 µg/mL
- MIC (Candida albicans [8]): > 31.3 µg/mL
- hemolysis at 1 h, 31.3 ug/ml [9]: 10.3%
- selectivity ratio [10]: 1
- selectivity ratio [11]: 1
- MIC (Candida albicans [12]): > 31.3 µg/mL
- selectivity ratio [13]: 1 to 32
- selectivity ratio [14]: 4
- selectivity ratio [15]: 1 to 32
- selectivity ratio [16]: 2
- CC50 (A549): > 31 µg/mL
- selectivity ratio [17]: 1 to 32
- selectivity ratio [18]: 8
- Activity (Enterococcus): inactive
- MIC (Candida albicans [19]): > 31.3 µg/mL
- selectivity ratio [20]: 1
- hemolysis at 1 h, 15.6 ug/ml ([21]; at 15.6 µg/mL): 7.7%
- hemolysis at 1 h, 0.975 ug/ml [21]: 0.8%
- selectivity ratio [22]: 1 to 32
- MIC (Aspergillus flavus): 31.3 µg/mL (≈ 73.4 µM)
- MIC (Candida albicans [23]): 7.8 µg/mL (≈ 18.3 µM)
- selectivity ratio [24]: 1 to 32
- selectivity ratio [25]: 1 to 32
- CC50 (BEAS-2B): 16 µg/mL (≈ 37.5 µM)
- MIC (Candida albicans [26]): > 31.3 µg/mL
- MIC (Candida albicans [27]): > 31.3 µg/mL
- selectivity ratio [28]: 1
- hemolysis at 1 h, 7.8 ug/ml [29]: 2.6%
- hemolysis at 1 h, 1.95 ug/ml [30]: 0%
- MIC (Aspergillus terreus): > 31.3 µg/mL
- selectivity ratio [31]: 1 to 32
- selectivity ratio [32]: 1
- Activity (Staphylococcus aureus): inactive
- hemolysis at 1 h, […] [33]: 0.2%
- MIC (Candida parapsilosis): 3.9 µg/mL (≈ 9.14 µM)
- selectivity ratio [34]: 1
- selectivity ratio [35]: 1
- selectivity ratio [36]: 1
- selectivity ratio [37]: 1 to 32
- selectivity ratio [38]: 1 to 32
- Activity (Listeria monocytogenes): inactive
- selectivity ratio [39]: 1 to 32

SMILES: Fc1ccccc1N/N=C/c1ccc(-c2cccc(/C=N/Nc3ccccc3F)c2)cc1
- selectivity ratio [40]: > 4.2
- selectivity ratio [2]: 0.5
- MIC (Pichia kudriavzevii): 1.95 µg/mL (≈ 4.57 µM)
- MIC (Candida albicans [4]): > 31.3 µg/mL
- MIC (Aspergillus nidulans): 7.8 µg/mL (≈ 18.3 µM)
- MIC (Nakaseomyces glabratus): > 31.3 µg/mL
- MIC (Candida albicans [8]): 7.8 µg/mL (≈ 18.3 µM)
- selectivity ratio [10]: 0.5
- selectivity ratio [11]: 2.1
- MIC (Candida albicans [12]): 15.6 µg/mL (≈ 36.6 µM)
- selectivity ratio [14]: 2.1
- selectivity ratio [16]: 8.4
- CC50 (A549): 16.4 µg/mL (≈ 38.5 µM)
- selectivity ratio [18]: 1.1
- Activity (Enterococcus): inactive
- MIC (Candida albicans [19]): > 31.3 µg/mL
- selectivity ratio [20]: 0.5
- MIC (Aspergillus flavus): 3.9 µg/mL (≈ 9.14 µM)
- MIC (Candida albicans [23]): 7.8 µg/mL (≈ 18.3 µM)
- CC50 (BEAS-2B): > 31 µg/mL
- MIC (Candida albicans [26]): 7.8 µg/mL (≈ 18.3 µM)
- MIC (Candida albicans [27]): 31.3 µg/mL (≈ 73.4 µM)
- selectivity ratio [28]: 1.1
- MIC (Aspergillus terreus): > 31.3 µg/mL
- selectivity ratio [32]: 2.1
- Activity (Staphylococcus aureus): inactive
- MIC (Candida parapsilosis): 15.6 µg/mL (≈ 36.6 µM)
- selectivity ratio [34]: 2.1
- selectivity ratio [35]: 0.5
- selectivity ratio [36]: 0.5
- Activity (Listeria monocytogenes): inactive
